Experimental data: PMC10709440, “High-throughput ligand profile characterization in novel cell lines expressing seven heterologous insect olfactory receptors for the detection of volatile plant biomarkers” (Scientific Reports, 2023)
Like-named read-outs stand apart in the source and are kept apart here.

Target: T1, Drosophila OR98a (Drosophila melanogaster, UniProt Q9VAZ3)
T1 construct: expressed in transfected cells
T1 sequence (Q9VAZ3 1-397): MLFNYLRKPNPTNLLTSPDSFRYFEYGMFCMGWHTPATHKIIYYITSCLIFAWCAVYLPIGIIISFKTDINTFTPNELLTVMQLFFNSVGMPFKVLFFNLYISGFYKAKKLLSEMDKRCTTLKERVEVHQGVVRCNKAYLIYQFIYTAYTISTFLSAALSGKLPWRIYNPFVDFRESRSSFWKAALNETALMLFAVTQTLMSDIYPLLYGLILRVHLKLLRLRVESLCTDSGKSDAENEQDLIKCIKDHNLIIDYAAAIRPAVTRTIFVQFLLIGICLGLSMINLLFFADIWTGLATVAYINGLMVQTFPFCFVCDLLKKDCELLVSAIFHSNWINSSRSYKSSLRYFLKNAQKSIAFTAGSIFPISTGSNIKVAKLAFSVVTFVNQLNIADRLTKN
T1 sequence (Q9VNB5 1-486 partner): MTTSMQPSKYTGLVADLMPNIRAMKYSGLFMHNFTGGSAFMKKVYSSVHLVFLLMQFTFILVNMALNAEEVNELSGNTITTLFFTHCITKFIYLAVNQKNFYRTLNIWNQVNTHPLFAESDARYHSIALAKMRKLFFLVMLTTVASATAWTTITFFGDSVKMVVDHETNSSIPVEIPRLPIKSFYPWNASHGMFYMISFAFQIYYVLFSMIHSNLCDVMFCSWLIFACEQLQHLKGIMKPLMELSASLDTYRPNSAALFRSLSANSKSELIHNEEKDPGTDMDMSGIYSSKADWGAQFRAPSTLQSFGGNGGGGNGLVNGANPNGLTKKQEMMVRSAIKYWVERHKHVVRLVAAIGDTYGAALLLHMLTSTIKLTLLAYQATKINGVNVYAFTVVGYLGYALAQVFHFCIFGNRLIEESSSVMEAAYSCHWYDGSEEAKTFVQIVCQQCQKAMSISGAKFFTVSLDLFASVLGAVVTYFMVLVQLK
Experiment: Calcium ion fluorescence (GCaMP6) assay, OR98a stable HEK293 cell line
Format: cell-based
Set-up: key to DF norm AVERAGE OR98a: VOC ∆F divided by the plate's mean ∆F response to 50 µM VUAA1
Settings: for OR98a response (VUAA1-normalized) at 1 μM / OR98a response (VUAA1-normalized) at 10 μM / OR98a response (VUAA1-normalized) at 100 μM / Average response: OR98a cell line; for Average response: average of biological replicates, fraction of VUAA1 response; for OR98a Average response (VUAA1-normalized): 50 μM VUAA1 = 1
Experimental: These VUAA1 normalized ∆F values were used to compare the different receptors and ligands.
The concentration-dependent effect of the reference ligands on their cognate cell lines was examined in more detail. Twelve different ligand concentrations were measured on each cell line in an overall 0.01 μM to 100 μM concentration range with 5 repetitions with three technical replicates each time.
Twelve thousand to 18,000 cells were plated into each well of a black wall, transparent bottom 384-well microplate (Greiner) 48 h or 72 h before the measurements and were simultaneously treated with 1 μg/mL doxycycline. […] The plate has 24 columns, thus we could record responses in up to eight different cell lines in each plate. On the day of the experiment, the growth medium was replaced with 20 µL assay buffer/well (140 mM NaCl, 5 mM KCl, 2 mM CaCl2, 1 mM MgCl2, 5 mM HEPES-Na, 20 mM glucose, pH 7.3, 340 mOsm). […] Baseline fluorescence (F0) was recorded for 5 s, after which 7 µL VOC buffer (140 mM NaCl, 5 mM KCl, 2 mM CaCl2, 1 mM MgCl2, 5 mM HEPES-Na, 31 mM glucose, 0.1% DMSO, pH 7.3, 340 mOsm) was injected into each well in one row and the fluorescence response was recorded for an additional 30 s, at a rate of one read/sec. VOC solutions (VOC buffer with 4× concentration of the final measured VOC concentration, 9 µL/well was injected) were measured on the same wells in a second round with the same protocol. Each individual concentration of a specific VOC sample was recorded in three wells for the same cell line on the same microplate. The raw data were exported in xls file format, F0 and FMAX values, and the fluorescence intensity changes (∆F) were calculated in Excel (Microsoft) (Supplementary file Data summary.xlsx) using the following equation: ΔF=FMAX-F0/F0 (see also Fig. 1C). On each plate, we recorded the response of each cell line to 50 µM VUAA1. The average of these ∆F values of each cell line were used to calculate the VUAA1-normalized values for the rest of the plate, by dividing VOC response ∆F values by the average VUAA1 response ∆F value of the corresponding OR cell line. Each VOC-OR combination was measured three times as technical replicates. […] The average of these replicates were used as one ∆F and VUAA1-normalized ∆F in the following analysis.
In the next rows we tested the reference VOCs (or other VOCs known to activate the corresponding cell lines), in order to test if all cell lines are responsive. The remaining rows were used to test VOCs with unknown effect.
The recorded FMAX, F0, ∆F, VUAA1-normalized ∆F values, as well as the OR name, the name of the tested sample, and the final concentration for each well were copied into supplementary file Data summary.xlsx, that was used to summarize all the plates recorded. Here, the averages of the measurements were calculated for each receptor-VOC-concentration combination.

[1] = HEK293, read-out: Average response
[2] = ligand concentration 1 (unit not given), 0.05 threshold, values below shown as 0
[3] = ligand concentration 10 (unit not given), 0.05 threshold, values below shown as 0
[4] = ligand concentration 100 (unit not given), 0.05 threshold, values below shown as 0
[5] = concentration 1, normalized fluorescence change, values below 0.05 threshold given as 0
[6] = concentration 10, normalized fluorescence change, values below 0.05 threshold given as 0
[7] = concentration 100, normalized fluorescence change, values below 0.05 threshold given as 0
[8] = HEK293, read-out: OR98a response (VUAA1-normalized response)
[9] = ligand concentration 1 (unit not given), threshold 0.05, below shown as 0
[10] = ligand concentration 10 (unit not given), threshold 0.05, below shown as 0
[11] = ligand concentration 100 (unit not given), threshold 0.05, below shown as 0
[12] = HEK293, read-out: OR98a Average response (VUAA1-normalized)

Row | Compound | activation at 1 µM [1] [%] | activation at 10 µM [1] [%] | activation at 100 µM [1] [%] | OR98a response (VUAA1-normalized) at 1 μM (VOC concentration 1 μM) | OR98a response (VUAA1-normalized) at 10 μM (VOC concentration 10 μM) | OR98a response (VUAA1-normalized) at 100 μM (VOC concentration 100 μM) | Average response (cc. 1 µM) | Average response (cc. 10 µM) | Average response (cc. 100 µM) | DF norm AVERAGE OR98a [5] | DF norm AVERAGE OR98a [6] | DF norm AVERAGE OR98a [7] | activation at 1 µM [8] [%] | activation at 10 µM [8] [%] | activation at 100 µM [8] [%] | other results
1 | C=Cc1ccccc1 [styrene] | 4.43 | 0 | 1.16 | 0.00 | 0.00 | 0.00 | – | – | – | – | – | – | – | – | – | DF norm AVERAGE OR98a [2]: 0; DF norm AVERAGE OR98a [3]: 0; DF norm AVERAGE OR98a [4]: 0
2 | (+)-beta-cedrene | – | – | – | – | – | – | 0.0855 | 0.06 | 0.06 | 0.08554 | 0.05985 | 0.06078 | – | – | – | OR98a response (VUAA1-normalized response) (VOC concentration 1 μM): 0.0855; OR98a response (VUAA1-normalized response) (VOC concentration 10 μM): 0.06; OR98a response (VUAA1-normalized response) (VOC concentration 100 μM): 0.06
3 | CCCCCCCCCCC [undecane] | 2.26 | 0 | 8 | 0.00 | 0.00 | 0.08 | – | – | – | – | – | – | – | – | – | DF norm AVERAGE OR98a [2]: 0; DF norm AVERAGE OR98a [3]: 0; DF norm AVERAGE OR98a [4]: 0.08228
4 | (-)-alpha-cedrene | – | – | – | – | – | – | 0.00 | 0.0421 | 0.0341 | 0 | 0 | 0 | – | – | – | OR98a response (VUAA1-normalized response) (VOC concentration 1 μM): 0.00; OR98a response (VUAA1-normalized response) (VOC concentration 10 μM): 0.00; OR98a response (VUAA1-normalized response) (VOC concentration 100 μM): 0.00
5 | CCc1ccccc1 [ethylbenzene] | 0 | 12 | 0 | – | – | – | – | – | – | – | – | – | 0 | 12 | 0 | DF norm AVERAGE OR98a [9]: 0; DF norm AVERAGE OR98a [10]: 0.1169; DF norm AVERAGE OR98a [11]: 0
6 | CCCCCCCCC(CO)CCCCCC (stereo not drawn) [2-hexyl-1-decanol] | 0 | 14 | 2 | – | – | – | – | – | – | 0 | 0.1367 | 0 | 0 | 14 | 0 | –
7 | CCCCCC(=O)CC [3-octanone] | 0 | 0 | 16 | – | – | – | – | – | – | 0 | 0 | 0.1573 | 0 | 0 | 16 | activation at 1 µM [12]: 0%; activation at 10 µM [12]: 0%; activation at 100 µM [12]: 16%
8 | C=C(C)C1CCC2(C)OC2C1 (single isomer, unassigned; (+)) [(+)-limonene oxide] | – | – | – | – | – | – | 0.00 | 0.00 | 0.00 | 0 | 0 | 0 | – | – | – | OR98a response (VUAA1-normalized response) (VOC concentration 1 μM): 0.00; OR98a response (VUAA1-normalized response) (VOC concentration 10 μM): 0.00; OR98a response (VUAA1-normalized response) (VOC concentration 100 μM): 0.00
9 | CCCC(O)CC (stereo not drawn) [3-hexanol] | 0 | 19 | 1.15 | – | – | – | – | – | – | 0 | 0.194 | 0 | 0 | 19 | 0 | –
10 | CC/C=C/CCO [e3-hexenol] | – | – | – | – | – | – | 0.00 | 0.00 | 0.00 | – | – | – | – | – | – | DF norm AVERAGE OR98a [9]: 0; DF norm AVERAGE OR98a [10]: 0; DF norm AVERAGE OR98a [11]: 0
11 | CC1=CCC23CC1C(C)(C)C2CCC3C (stereo not drawn) [α-funebrene] | 0 | 9 | 5 | 0.00 | 0.09 | 0.05 | – | – | – | – | – | – | – | – | – | DF norm AVERAGE OR98a [2]: 0; DF norm AVERAGE OR98a [3]: 0.08582; DF norm AVERAGE OR98a [4]: 0.05199
12 | CC1=CCC[C@@]2(C)[C@@H]3CC[C@]12CC3(C)C [(−)-α-neoclovene] | – | – | – | – | – | – | 0.15 | 0.00 | 0.0421 | 0.1483 | 0 | 0 | – | – | – | OR98a response (VUAA1-normalized response) (VOC concentration 1 μM): 0.15; OR98a response (VUAA1-normalized response) (VOC concentration 10 μM): 0.00; OR98a response (VUAA1-normalized response) (VOC concentration 100 μM): 0.00
13 | C=C1CC[C@H]2O[C@]2(C)CC[C@@H]2[C@@H]1CC2(C)C [(-)-caryophyllene oxide] | 0 | 4 | 0 | – | – | – | – | – | – | 0 | 0 | 0 | 0 | 0 | 0 | –
14 | Cc1ccccc1C [o-xylene] | 0 | 0 | 0 | 0.00 | 0.00 | 0.00 | – | – | – | – | – | – | – | – | – | DF norm AVERAGE OR98a [9]: 0; DF norm AVERAGE OR98a [10]: 0; DF norm AVERAGE OR98a [11]: 0
15 | Cc1ccc(C)cc1 [p-xylene] | 0 | 2.51 | 4 | 0.00 | 0.00 | 0.00 | – | – | – | – | – | – | – | – | – | DF norm AVERAGE OR98a [9]: 0; DF norm AVERAGE OR98a [10]: 0; DF norm AVERAGE OR98a [11]: 0
16 | CC/C=C\CCO [Z3-hexenol] | – | – | – | – | – | – | 0.00 | 0.17 | 0.11 | – | – | – | – | – | – | OR98a Average response (VUAA1-normalized) (1 μM VOC): 0.00; OR98a Average response (VUAA1-normalized) (10 μM VOC): 0.17; OR98a Average response (VUAA1-normalized) (100 μM VOC): 0.11; DF norm AVERAGE OR98a [2]: 0; DF norm AVERAGE OR98a [3]: 0.167; DF norm AVERAGE OR98a [4]: 0.1147
